pIC50: −log10 of the molar value. Calls of active or inactive are those of the source. The calls are words filed in the database; no cut-off is given here.

Data set [1] deals with Histone deacetylase 3 (Homo sapiens, UniProt O15379). The data set is described as follows: Inhibition of HDAC3 (unknown origin) at 1 uM incubated for 30 mins by fluorometric analysis.
Data set [2] concerns the target Histone deacetylase 2 (Homo sapiens, UniProt Q92769). Kind of data set: Inhibition of HDAC2 (unknown origin) incubated for 30 mins by fluorometric analysis.
Data set [3] concerns the target T1, Protein deacetylase HDAC6 (Homo sapiens) (UniProt Q9UBN7).
T1 sequence (whole entry): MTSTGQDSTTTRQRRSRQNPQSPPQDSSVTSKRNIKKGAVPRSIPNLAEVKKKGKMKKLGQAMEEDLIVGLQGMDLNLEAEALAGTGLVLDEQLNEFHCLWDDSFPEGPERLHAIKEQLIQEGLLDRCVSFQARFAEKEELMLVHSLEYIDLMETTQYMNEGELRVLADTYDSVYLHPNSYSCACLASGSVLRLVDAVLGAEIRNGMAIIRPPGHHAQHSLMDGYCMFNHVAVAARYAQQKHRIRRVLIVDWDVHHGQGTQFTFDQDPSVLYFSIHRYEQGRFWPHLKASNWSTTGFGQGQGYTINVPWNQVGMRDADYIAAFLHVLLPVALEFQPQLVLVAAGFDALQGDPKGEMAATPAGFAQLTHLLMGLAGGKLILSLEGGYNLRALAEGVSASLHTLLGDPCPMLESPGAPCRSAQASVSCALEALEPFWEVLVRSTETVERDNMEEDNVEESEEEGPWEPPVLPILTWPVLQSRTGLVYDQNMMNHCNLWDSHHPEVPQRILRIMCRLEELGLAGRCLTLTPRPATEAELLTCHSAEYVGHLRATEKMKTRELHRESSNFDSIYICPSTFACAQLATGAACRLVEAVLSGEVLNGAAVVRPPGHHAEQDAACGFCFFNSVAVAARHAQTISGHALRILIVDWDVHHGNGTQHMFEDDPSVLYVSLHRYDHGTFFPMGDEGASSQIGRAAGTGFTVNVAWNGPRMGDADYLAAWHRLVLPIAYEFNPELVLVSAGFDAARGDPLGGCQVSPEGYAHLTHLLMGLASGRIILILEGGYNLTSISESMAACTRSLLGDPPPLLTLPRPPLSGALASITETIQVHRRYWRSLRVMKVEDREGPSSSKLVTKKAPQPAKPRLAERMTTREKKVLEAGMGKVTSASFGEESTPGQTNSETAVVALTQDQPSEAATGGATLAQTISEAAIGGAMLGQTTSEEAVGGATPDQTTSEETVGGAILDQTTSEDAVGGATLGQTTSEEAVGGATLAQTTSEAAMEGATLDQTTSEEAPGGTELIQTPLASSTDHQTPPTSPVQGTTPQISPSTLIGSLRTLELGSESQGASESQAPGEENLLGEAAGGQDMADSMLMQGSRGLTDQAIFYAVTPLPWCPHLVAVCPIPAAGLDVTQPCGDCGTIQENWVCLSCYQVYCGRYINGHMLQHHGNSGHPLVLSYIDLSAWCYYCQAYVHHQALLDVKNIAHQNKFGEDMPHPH
Kind of data set: Inhibition of HDAC6 in human RPMI-8226 cells assessed as increase in acetylated alpha-tubulin level at 1 uM incubated for 24 hrs by western blot analysis. The format is cell-based.

The subject of data set [4] is RPMI-8226. Kind of data set: Increase in TRAIL protein expression in human RPMI-8226 cells at 0.5 uM incubated for 24 hrs by western blot analysis. The format is functional, cell-based.
For data set [5], the system named is Mus musculus. Kind of data set: Anti-pulmonary fibrosis activity in bleomycin-induced idiopathic pulmonary fibrosis C57BL/6J mouse model assessed as decrease in lung damage by measuring decrease in inflammatory cell infiltration in lung at 25 to 50 mg/kg, ig administered daily via gavage and measured on day 14 by Sirius red staining based analysis. The format is functional, organism-based. The following applies: dose 25-50 mg/kg, time 14.0 day.

Data set [6] in a line: Toxicity against bleomycin-induced pulmonary fibrosis C57BL/6J mouse model assessed as increase AST index in serum at 50 mg/kg, ig administered daily via gavage and measured on day 14. Format: organism-based. The following applies: in vivo, po, 336 h, time 14 day.
The nature of data set [7]: Toxicity against bleomycin-induced pulmonary fibrosis C57BL/6J mouse model assessed as effect on heart morphological changes at 25 to 50 mg/kg, ig administered daily via gavage and measured on day 14 by Hematoxylin-Eosin staining based analysis. Format: organism-based. The following applies: in vivo, po, 336 h, dose 25-50 mg/kg, time 14 day.
The nature of data set [8]: Toxicity against bleomycin-induced pulmonary fibrosis C57BL/6J mouse model assessed as effect on liver morphological changes at 25 to 50 mg/kg, ig administered daily via gavage and measured on day 14 by Hematoxylin-Eosin staining based analysis. The following applies: in vivo, po, 336 h, dose 25-50 mg/kg, time 14 day. Format: organism-based.
Data set [9] is described as follows: Toxicity against bleomycin-induced pulmonary fibrosis C57BL/6J mouse model assessed as effect on spleen morphological changes at 25 to 50 mg/kg, ig administered daily via gavage and measured on day 14 by Hematoxylin-Eosin staining based analysis. Format: organism-based. The following applies: in vivo, po, 336 h, dose 25-50 mg/kg, time 14 day.
A short description of data set [10]: Toxicity against bleomycin-induced pulmonary fibrosis C57BL/6J mouse model assessed as effect on kidney morphological changes at 25 to 50 mg/kg, ig administered daily via gavage and measured on day 14 by Hematoxylin-Eosin staining based analysis. Format: organism-based. The following applies: in vivo, po, 336 h, dose 25-50 mg/kg, time 14 day.
Data set [11] is described as follows: Toxicity against silicosis C57BL/6J mouse model assessed as AST index in serum at 50 mg/kg, ig administered daily via gavage and measured on day 28. The format is organism-based. The following applies: in vivo, po, 672 h, time 28 day.
Data set [12] is described as follows: Toxicity against silicosis C57BL/6J mouse model assessed as effect on heart morphological changes at 50 mg/kg, ig administered daily via gavage and measured on day 28 by Hematoxylin-Eosin staining based analysis. The format is organism-based. The following applies: in vivo, po, 672 h, time 28 day.
The nature of data set [13]: Toxicity against silicosis C57BL/6J mouse model assessed as effect on kidney morphological changes at 50 mg/kg, ig administered daily via gavage and measured on day 28 by Hematoxylin-Eosin staining based analysis. The following applies: in vivo, po, 672 h, time 28 day. Format: organism-based.

Sequence of Histone deacetylase 2 (Q92769 whole entry): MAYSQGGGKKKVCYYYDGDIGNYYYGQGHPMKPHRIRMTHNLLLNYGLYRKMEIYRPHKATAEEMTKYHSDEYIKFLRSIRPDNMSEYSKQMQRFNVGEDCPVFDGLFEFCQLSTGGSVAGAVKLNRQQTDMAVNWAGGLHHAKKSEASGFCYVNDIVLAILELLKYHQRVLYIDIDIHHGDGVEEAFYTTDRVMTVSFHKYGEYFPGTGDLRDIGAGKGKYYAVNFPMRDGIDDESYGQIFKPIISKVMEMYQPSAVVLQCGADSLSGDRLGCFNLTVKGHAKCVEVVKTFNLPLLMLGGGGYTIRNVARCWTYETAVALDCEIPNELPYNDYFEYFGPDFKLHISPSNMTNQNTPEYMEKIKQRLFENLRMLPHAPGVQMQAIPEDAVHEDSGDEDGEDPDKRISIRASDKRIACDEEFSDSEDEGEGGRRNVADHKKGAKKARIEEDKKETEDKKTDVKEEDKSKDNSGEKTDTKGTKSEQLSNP
Sequence of Histone deacetylase 3 (O15379 whole entry): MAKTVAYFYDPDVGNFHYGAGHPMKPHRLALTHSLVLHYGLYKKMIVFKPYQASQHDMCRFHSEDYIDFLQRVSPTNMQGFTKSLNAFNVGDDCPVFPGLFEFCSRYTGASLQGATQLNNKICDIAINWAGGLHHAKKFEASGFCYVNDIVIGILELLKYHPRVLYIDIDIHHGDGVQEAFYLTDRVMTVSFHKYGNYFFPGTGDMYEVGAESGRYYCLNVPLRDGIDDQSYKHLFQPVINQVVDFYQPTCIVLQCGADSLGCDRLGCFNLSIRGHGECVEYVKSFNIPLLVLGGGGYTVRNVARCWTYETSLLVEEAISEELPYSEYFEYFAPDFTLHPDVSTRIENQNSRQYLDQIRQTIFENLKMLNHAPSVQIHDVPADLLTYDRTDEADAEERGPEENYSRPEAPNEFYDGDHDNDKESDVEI

Broadly, the inhibition is the relative decrease from the control value, in per cent. For orientation: pIC50 means the negative decadic logarithm of the IC50, by convention in mol/L. As to `O=C(NO)c1ccc(CN2C(=O)C3=C(CCN(Cc4cccc(Cl)c4)C3)N3CCN=C23)cc1`, the inhibition is 50.8% in [1] and “Active; Intensity Of Increase Slightly Lower Than Positive Drug, Acy-1215” in [3]. Further, the pIC50 in data set [2] is 6.19. Further, the Activity entry in data set [4] is “Active; Comparable Activity To 1 Um Compound Iic And Greater Activity Compared To 1 Um Chidamide, Acy-1215”; in data set [6], “Toxic”; in data set [7] it was “Non-toxic”; in data set [8] it was “Non-toxic”; in data set [9], “Non-toxic”; in data set [10] it was “Non-toxic”. Also, the Activity result in data set [11], in [12] and in data set [13] was “Non-toxic” throughout. Further, the result in data set [5] was Active.

(Values after ChEMBL document CHEMBL6092154, “Design, synthesis, and evaluation of a novel TRAIL-activated HDAC6 inhibitor for the treatment of pulmonary fibrosis” (Bioorg Med Chem, 2024).)
